PubChem BioAssay (NCI)
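Assay format: 96-well plates, 48-hour exposure. TGI denotes the concentration required for complete inhibition of growth.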

Experiments:
Assay in all cases: NCI anticancer screen, dose series, 48 h
786-0 renal = test system: 786-0 renal
A498 renal = test system: A498 renal
A549 NSCLC = test system: A549 NSCLC
ACHN renal = test system: ACHN renal
CAKI-1 renal = test system: CAKI-1 renal
CCRF-CEM leukemia = test system: CCRF-CEM leukemia
COLO 205 colon = test system: COLO 205 colon
DLD-1 colon = test system: DLD-1 colon
DMS 114 small cell lung = test system: DMS 114 small cell lung
DMS 273 small cell lung = test system: DMS 273 small cell lung
EKVX NSCLC = test system: EKVX NSCLC
HCC-2998 colon = test system: HCC-2998 colon
HCT-116 colon = test system: HCT-116 colon
HCT-15 colon = test system: HCT-15 colon
HL-60(TB) leukemia = test system: HL-60(TB) leukemia
HOP-18 NSCLC = test system: HOP-18 NSCLC
HOP-62 NSCLC = test system: HOP-62 NSCLC
HT29 colon = test system: HT29 colon
IGROV1 ovarian = test system: IGROV1 ovarian
K-562 leukemia = test system: K-562 leukemia
KM12 colon = test system: KM12 colon
KM20L2 colon = test system: KM20L2 colon
LOX IMVI melanoma = test system: LOX IMVI melanoma
LXFL 529 NSCLC = test system: LXFL 529 NSCLC
M14 melanoma = test system: M14 melanoma
M19-MEL melanoma = test system: M19-MEL melanoma
MALME-3M melanoma = test system: MALME-3M melanoma
NCI-H226 lung = test system: NCI-H226 lung
NCI-H23 lung = test system: NCI-H23 lung
NCI-H460 lung = test system: NCI-H460 lung
NCI-H522 lung = test system: NCI-H522 lung
OVCAR-3 ovarian = test system: OVCAR-3 ovarian
OVCAR-4 ovarian = test system: OVCAR-4 ovarian
OVCAR-5 ovarian = test system: OVCAR-5 ovarian
OVCAR-8 ovarian = test system: OVCAR-8 ovarian
RPMI-8226 leukemia = test system: RPMI-8226 leukemia
RXF-631 renal = test system: RXF-631 renal
SF-268 CNS = test system: SF-268 CNS
SF-295 CNS = test system: SF-295 CNS
SK-MEL-2 melanoma = test system: SK-MEL-2 melanoma
SK-MEL-28 melanoma = test system: SK-MEL-28 melanoma
SK-MEL-5 melanoma = test system: SK-MEL-5 melanoma
SK-OV-3 ovarian = test system: SK-OV-3 ovarian
SN12C renal = test system: SN12C renal
SNB-19 CNS = test system: SNB-19 CNS
SNB-75 CNS = test system: SNB-75 CNS
SNB-78 CNS = test system: SNB-78 CNS
SW-620 colon = test system: SW-620 colon
TK-10 renal = test system: TK-10 renal
U251 CNS = test system: U251 CNS
UACC-257 melanoma = test system: UACC-257 melanoma
UACC-62 melanoma = test system: UACC-62 melanoma
UO-31 renal = test system: UO-31 renal
HOP-92 NSCLC = test system: HOP-92 NSCLC
RXF 393 renal = test system: RXF 393 renal
SF-539 CNS = test system: SF-539 CNS
MOLT-4 leukemia = test system: MOLT-4 leukemia

## CC(C)C(N=c1c2ccccc2n(O)c2ccccc12)C(=O)O (stereo not given)
786-0 renal
  TGI: > 100 µM
A498 renal
  TGI: > 100 µM
A549 NSCLC
  TGI: > 100 µM
ACHN renal
  TGI: > 100 µM
CAKI-1 renal
  TGI: > 100 µM
CCRF-CEM leukemia
  TGI: > 100 µM
COLO 205 colon
  TGI: > 100 µM
DLD-1 colon
  TGI: > 100 µM
DMS 114 small cell lung
  TGI: > 100 µM
DMS 273 small cell lung
  TGI: > 100 µM
EKVX NSCLC
  TGI: > 100 µM
HCC-2998 colon
  TGI: > 100 µM
HCT-116 colon
  TGI: > 100 µM
HCT-15 colon
  TGI: > 100 µM
HL-60(TB) leukemia
  TGI: > 100 µM
HOP-18 NSCLC
  TGI: > 100 µM
HOP-62 NSCLC
  TGI: > 100 µM
HT29 colon
  TGI: > 100 µM
IGROV1 ovarian
  TGI: > 100 µM
K-562 leukemia
  TGI: > 100 µM
KM12 colon
  TGI: > 100 µM
KM20L2 colon
  TGI: > 100 µM
LOX IMVI melanoma
  TGI: > 100 µM
LXFL 529 NSCLC
  TGI: > 100 µM
M14 melanoma
  TGI: > 100 µM
M19-MEL melanoma
  TGI: > 100 µM
MALME-3M melanoma
  TGI: > 100 µM
NCI-H226 lung
  TGI: > 100 µM
NCI-H23 lung
  TGI: > 100 µM
NCI-H460 lung
  TGI: > 100 µM
NCI-H522 lung
  TGI: > 100 µM
OVCAR-3 ovarian
  TGI: > 100 µM
OVCAR-4 ovarian
  TGI: > 100 µM
OVCAR-5 ovarian
  TGI: > 100 µM
OVCAR-8 ovarian
  TGI: > 100 µM
RPMI-8226 leukemia
  TGI: > 100 µM
RXF-631 renal
  TGI: > 100 µM
SF-268 CNS
  TGI: > 100 µM
SF-295 CNS
  TGI: > 100 µM
SK-MEL-2 melanoma
  TGI: > 100 µM
SK-MEL-28 melanoma
  TGI: > 100 µM
SK-MEL-5 melanoma
  TGI: > 100 µM
SK-OV-3 ovarian
  TGI: > 100 µM
SN12C renal
  TGI: > 100 µM
SNB-19 CNS
  TGI: > 100 µM
SNB-75 CNS
  TGI: > 100 µM
SNB-78 CNS
  TGI: > 100 µM
SW-620 colon
  TGI: > 100 µM
TK-10 renal
  TGI: > 100 µM
U251 CNS
  TGI: > 100 µM
UACC-257 melanoma
  TGI: > 100 µM
UACC-62 melanoma
  TGI: > 100 µM
UO-31 renal
  TGI: > 100 µM

## O=C(Cc1nc(-c2ccccc2)cc(=O)n1-c1ccccc1Cl)c1ccncc1
786-0 renal
  TGI: > 100 µM
A498 renal
  TGI: > 100 µM
A549 NSCLC
  TGI: > 100 µM
ACHN renal
  TGI: > 100 µM
CAKI-1 renal
  TGI: > 100 µM
CCRF-CEM leukemia
  TGI: > 100 µM
COLO 205 colon
  TGI: > 100 µM
DLD-1 colon
  TGI: > 100 µM
DMS 114 small cell lung
  TGI: > 100 µM
DMS 273 small cell lung
  TGI: > 100 µM
EKVX NSCLC
  TGI: > 100 µM
HCC-2998 colon
  TGI: > 100 µM
HCT-116 colon
  TGI: > 100 µM
HCT-15 colon
  TGI: > 100 µM
HL-60(TB) leukemia
  TGI: > 100 µM
HOP-18 NSCLC
  TGI: > 100 µM
HOP-62 NSCLC
  TGI: > 100 µM
HOP-92 NSCLC
  TGI: > 100 µM
HT29 colon
  TGI: > 100 µM
IGROV1 ovarian
  TGI: > 100 µM
K-562 leukemia
  TGI: > 100 µM
KM12 colon
  TGI: > 100 µM
KM20L2 colon
  TGI: > 100 µM
LOX IMVI melanoma
  TGI: > 100 µM
LXFL 529 NSCLC
  TGI: > 100 µM
M14 melanoma
  TGI: > 100 µM
M19-MEL melanoma
  TGI: > 100 µM
MALME-3M melanoma
  TGI: > 100 µM
NCI-H226 lung
  TGI: > 100 µM
NCI-H23 lung
  TGI: > 100 µM
NCI-H460 lung
  TGI: > 100 µM
NCI-H522 lung
  TGI: > 100 µM
OVCAR-3 ovarian
  TGI: > 100 µM
OVCAR-4 ovarian
  TGI: > 100 µM
OVCAR-5 ovarian
  TGI: > 100 µM
OVCAR-8 ovarian
  TGI: > 100 µM
RXF 393 renal
  TGI: > 100 µM
RXF-631 renal
  TGI: > 100 µM
SF-268 CNS
  TGI: > 100 µM
SF-295 CNS
  TGI: > 100 µM
SF-539 CNS
  TGI: > 100 µM
SK-MEL-2 melanoma
  TGI: > 100 µM
SK-MEL-28 melanoma
  TGI: > 100 µM
SK-MEL-5 melanoma
  TGI: > 100 µM
SK-OV-3 ovarian
  TGI: > 100 µM
SN12C renal
  TGI: > 100 µM
SNB-19 CNS
  TGI: > 100 µM
SNB-75 CNS
  TGI: 82.6 µM
SNB-78 CNS
  TGI: > 100 µM
SW-620 colon
  TGI: > 100 µM
TK-10 renal
  TGI: > 100 µM
U251 CNS
  TGI: > 100 µM
UACC-257 melanoma
  TGI: > 100 µM
UACC-62 melanoma
  TGI: > 100 µM
UO-31 renal
  TGI: > 100 µM

## c1ccc(-c2[o+]c(-c3ccccc3)c(-c3ccccc3)c(-c3ccccc3)c2-c2ccccc2)cc1
786-0 renal
  TGI: > 100 µM
A498 renal
  TGI: > 100 µM
A549 NSCLC
  TGI: > 100 µM
ACHN renal
  TGI: > 100 µM
CAKI-1 renal
  TGI: > 100 µM
COLO 205 colon
  TGI: > 100 µM
DLD-1 colon
  TGI: > 100 µM
DMS 273 small cell lung
  TGI: > 100 µM
EKVX NSCLC
  TGI: > 100 µM
HCC-2998 colon
  TGI: > 100 µM
HCT-116 colon
  TGI: > 100 µM
HCT-15 colon
  TGI: > 100 µM
HL-60(TB) leukemia
  TGI: > 100 µM
HOP-18 NSCLC
  TGI: > 100 µM
HOP-62 NSCLC
  TGI: > 100 µM
HOP-92 NSCLC
  TGI: > 100 µM
HT29 colon
  TGI: > 100 µM
IGROV1 ovarian
  TGI: > 100 µM
KM20L2 colon
  TGI: > 100 µM
LOX IMVI melanoma
  TGI: > 100 µM
LXFL 529 NSCLC
  TGI: > 100 µM
M14 melanoma
  TGI: > 100 µM
M19-MEL melanoma
  TGI: > 100 µM
MALME-3M melanoma
  TGI: > 100 µM
MOLT-4 leukemia
  TGI: > 100 µM
NCI-H226 lung
  TGI: > 100 µM
NCI-H23 lung
  TGI: > 100 µM
NCI-H460 lung
  TGI: > 100 µM
NCI-H522 lung
  TGI: > 100 µM
OVCAR-3 ovarian
  TGI: > 100 µM
OVCAR-4 ovarian
  TGI: > 100 µM
OVCAR-5 ovarian
  TGI: > 100 µM
OVCAR-8 ovarian
  TGI: > 100 µM
RPMI-8226 leukemia
  TGI: > 100 µM
RXF 393 renal
  TGI: > 100 µM
RXF-631 renal
  TGI: > 100 µM
SF-268 CNS
  TGI: > 100 µM
SF-295 CNS
  TGI: > 100 µM
SF-539 CNS
  TGI: > 100 µM
SK-MEL-2 melanoma
  TGI: > 100 µM
SK-MEL-28 melanoma
  TGI: > 100 µM
SK-MEL-5 melanoma
  TGI: > 100 µM
SK-OV-3 ovarian
  TGI: > 100 µM
SN12C renal
  TGI: > 100 µM
SNB-75 CNS
  TGI: > 100 µM
SNB-78 CNS
  TGI: > 100 µM
SW-620 colon
  TGI: > 100 µM
TK-10 renal
  TGI: > 100 µM
U251 CNS
  TGI: > 100 µM
UACC-257 melanoma
  TGI: > 100 µM
UACC-62 melanoma
  TGI: > 100 µM
UO-31 renal
  TGI: > 100 µM
